Like-named read-outs stand apart in the source and are kept apart here.
Tests used:
Assay type in all cases: cell-based
[1] = target: protein kinases (human kinome) (Homo sapiens, UniProt Q8TEA7); details: experiment wp056
[2] = target: protein kinases (human kinome) (Homo sapiens, UniProt P48736)
[3] = target: protein kinases (human kinome) (Homo sapiens, UniProt Q9UHD2); details: experiment wp146
[4] = target: protein kinases (human kinome) (Homo sapiens, UniProt Q16877); details: PFKFB4 (Q16877); experiment wp080
[5] = target: protein kinases (human kinome) (Homo sapiens, UniProt Q96QT4); details: experiment wp107
protein kinases (human kinome) (Homo sapiens, UniProt Q96QT4), sequence (Q96QT4 whole entry): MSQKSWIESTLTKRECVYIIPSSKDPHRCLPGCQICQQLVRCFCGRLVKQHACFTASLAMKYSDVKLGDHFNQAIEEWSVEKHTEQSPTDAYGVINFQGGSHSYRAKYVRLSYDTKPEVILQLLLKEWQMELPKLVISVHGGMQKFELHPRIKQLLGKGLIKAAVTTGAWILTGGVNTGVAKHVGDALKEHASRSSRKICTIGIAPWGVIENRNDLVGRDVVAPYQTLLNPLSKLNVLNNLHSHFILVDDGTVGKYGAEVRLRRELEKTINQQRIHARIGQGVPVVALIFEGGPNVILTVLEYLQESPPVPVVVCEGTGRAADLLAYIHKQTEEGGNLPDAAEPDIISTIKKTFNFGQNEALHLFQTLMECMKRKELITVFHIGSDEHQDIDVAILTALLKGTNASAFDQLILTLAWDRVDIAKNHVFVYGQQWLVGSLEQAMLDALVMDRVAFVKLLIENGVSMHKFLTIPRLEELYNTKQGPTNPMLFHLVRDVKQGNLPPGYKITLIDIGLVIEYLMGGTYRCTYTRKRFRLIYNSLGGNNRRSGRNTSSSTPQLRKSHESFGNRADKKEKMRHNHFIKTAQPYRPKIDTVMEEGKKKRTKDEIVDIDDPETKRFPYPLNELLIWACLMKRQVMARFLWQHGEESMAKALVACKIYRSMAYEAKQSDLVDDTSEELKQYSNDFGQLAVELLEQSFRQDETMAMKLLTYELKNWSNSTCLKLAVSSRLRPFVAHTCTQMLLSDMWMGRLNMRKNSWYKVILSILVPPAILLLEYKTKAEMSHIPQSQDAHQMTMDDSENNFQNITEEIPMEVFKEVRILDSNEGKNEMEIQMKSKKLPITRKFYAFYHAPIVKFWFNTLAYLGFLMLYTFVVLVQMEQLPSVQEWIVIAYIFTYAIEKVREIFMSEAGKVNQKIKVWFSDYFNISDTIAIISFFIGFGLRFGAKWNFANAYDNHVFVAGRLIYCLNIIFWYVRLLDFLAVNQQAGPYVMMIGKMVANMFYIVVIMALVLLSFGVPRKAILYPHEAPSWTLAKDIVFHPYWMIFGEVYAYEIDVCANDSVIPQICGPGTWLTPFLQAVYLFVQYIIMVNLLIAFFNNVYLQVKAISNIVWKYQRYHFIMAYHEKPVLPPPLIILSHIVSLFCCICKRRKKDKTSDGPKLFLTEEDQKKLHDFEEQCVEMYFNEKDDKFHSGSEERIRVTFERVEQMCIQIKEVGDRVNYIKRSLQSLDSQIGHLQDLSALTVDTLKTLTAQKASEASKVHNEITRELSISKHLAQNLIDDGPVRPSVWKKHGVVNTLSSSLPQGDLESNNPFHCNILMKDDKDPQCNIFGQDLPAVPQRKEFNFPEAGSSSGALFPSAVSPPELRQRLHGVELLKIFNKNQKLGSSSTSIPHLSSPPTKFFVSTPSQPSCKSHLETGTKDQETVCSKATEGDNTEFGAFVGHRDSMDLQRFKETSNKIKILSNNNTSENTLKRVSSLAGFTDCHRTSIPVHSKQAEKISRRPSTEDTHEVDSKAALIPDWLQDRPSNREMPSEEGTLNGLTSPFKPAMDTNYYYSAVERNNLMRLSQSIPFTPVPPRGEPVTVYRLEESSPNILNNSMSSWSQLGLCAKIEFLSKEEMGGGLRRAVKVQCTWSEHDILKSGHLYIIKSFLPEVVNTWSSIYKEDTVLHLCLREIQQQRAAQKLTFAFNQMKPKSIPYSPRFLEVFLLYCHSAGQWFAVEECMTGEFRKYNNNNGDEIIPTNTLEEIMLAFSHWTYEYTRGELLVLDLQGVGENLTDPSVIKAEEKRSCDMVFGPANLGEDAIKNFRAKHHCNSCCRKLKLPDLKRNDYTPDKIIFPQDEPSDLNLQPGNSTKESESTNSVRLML

[6] = target: protein kinases (human kinome) (Homo sapiens, UniProt Q52WX2); details: for logFC: SBK1 (Q52WX2)
protein kinases (human kinome) (Homo sapiens, UniProt Q52WX2), sequence (Q52WX2 whole entry): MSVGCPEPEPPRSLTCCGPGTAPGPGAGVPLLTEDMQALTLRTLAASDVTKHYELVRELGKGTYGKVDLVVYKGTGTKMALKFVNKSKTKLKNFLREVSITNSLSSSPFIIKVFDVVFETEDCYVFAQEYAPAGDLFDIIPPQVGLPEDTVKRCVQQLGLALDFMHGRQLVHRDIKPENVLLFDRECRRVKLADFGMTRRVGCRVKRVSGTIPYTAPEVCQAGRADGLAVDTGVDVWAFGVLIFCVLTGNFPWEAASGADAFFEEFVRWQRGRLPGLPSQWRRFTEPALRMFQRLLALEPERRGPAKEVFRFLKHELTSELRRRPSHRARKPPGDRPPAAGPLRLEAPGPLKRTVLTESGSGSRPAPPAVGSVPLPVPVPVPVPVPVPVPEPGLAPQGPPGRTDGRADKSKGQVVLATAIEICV

[7] = target: protein kinases (human kinome) (Homo sapiens, UniProt Q96RU7)
protein kinases (human kinome) (Homo sapiens, UniProt Q96RU7), sequence (Q96RU7 whole entry): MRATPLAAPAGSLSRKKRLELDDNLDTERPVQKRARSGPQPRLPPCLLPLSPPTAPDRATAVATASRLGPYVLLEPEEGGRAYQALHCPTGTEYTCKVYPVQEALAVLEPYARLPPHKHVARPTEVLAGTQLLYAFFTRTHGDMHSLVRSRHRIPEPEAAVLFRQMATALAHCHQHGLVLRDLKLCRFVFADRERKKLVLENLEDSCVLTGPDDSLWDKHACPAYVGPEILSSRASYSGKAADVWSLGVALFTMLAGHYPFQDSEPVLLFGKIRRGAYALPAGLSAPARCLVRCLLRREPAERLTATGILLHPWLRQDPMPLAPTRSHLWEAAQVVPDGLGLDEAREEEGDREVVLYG

[8] = target: T1, protein kinases (human kinome) (Homo sapiens, UniProt P29323)
T1 sequence (P29323 19-1055): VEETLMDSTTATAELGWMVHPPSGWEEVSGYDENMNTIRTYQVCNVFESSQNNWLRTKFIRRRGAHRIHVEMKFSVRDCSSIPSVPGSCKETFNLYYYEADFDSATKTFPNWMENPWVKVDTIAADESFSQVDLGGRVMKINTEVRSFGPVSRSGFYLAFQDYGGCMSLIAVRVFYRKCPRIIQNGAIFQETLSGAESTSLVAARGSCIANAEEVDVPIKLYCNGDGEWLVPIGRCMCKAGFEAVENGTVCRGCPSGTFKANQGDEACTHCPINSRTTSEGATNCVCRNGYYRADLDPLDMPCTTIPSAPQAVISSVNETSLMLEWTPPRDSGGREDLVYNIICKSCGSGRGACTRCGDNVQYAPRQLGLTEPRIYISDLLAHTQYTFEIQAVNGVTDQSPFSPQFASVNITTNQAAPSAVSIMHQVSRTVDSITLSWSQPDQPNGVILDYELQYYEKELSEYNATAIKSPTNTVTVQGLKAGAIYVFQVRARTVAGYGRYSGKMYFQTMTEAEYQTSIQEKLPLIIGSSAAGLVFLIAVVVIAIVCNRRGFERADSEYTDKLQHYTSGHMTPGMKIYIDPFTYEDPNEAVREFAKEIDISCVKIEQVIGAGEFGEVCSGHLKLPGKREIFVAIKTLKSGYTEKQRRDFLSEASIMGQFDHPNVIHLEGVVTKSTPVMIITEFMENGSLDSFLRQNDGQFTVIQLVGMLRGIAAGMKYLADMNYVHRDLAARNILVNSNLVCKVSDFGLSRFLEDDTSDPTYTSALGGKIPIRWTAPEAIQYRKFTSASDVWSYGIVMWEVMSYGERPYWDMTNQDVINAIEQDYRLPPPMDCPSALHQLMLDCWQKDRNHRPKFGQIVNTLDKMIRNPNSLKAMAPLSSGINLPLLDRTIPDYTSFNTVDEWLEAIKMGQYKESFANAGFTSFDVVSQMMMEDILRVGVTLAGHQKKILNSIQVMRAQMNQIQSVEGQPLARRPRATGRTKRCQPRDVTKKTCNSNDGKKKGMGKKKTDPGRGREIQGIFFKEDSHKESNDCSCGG

[9] = target: protein kinases (human kinome) (Homo sapiens, UniProt O60307); details: experiment wp107
protein kinases (human kinome) (Homo sapiens, UniProt O60307), sequence (O60307 whole entry): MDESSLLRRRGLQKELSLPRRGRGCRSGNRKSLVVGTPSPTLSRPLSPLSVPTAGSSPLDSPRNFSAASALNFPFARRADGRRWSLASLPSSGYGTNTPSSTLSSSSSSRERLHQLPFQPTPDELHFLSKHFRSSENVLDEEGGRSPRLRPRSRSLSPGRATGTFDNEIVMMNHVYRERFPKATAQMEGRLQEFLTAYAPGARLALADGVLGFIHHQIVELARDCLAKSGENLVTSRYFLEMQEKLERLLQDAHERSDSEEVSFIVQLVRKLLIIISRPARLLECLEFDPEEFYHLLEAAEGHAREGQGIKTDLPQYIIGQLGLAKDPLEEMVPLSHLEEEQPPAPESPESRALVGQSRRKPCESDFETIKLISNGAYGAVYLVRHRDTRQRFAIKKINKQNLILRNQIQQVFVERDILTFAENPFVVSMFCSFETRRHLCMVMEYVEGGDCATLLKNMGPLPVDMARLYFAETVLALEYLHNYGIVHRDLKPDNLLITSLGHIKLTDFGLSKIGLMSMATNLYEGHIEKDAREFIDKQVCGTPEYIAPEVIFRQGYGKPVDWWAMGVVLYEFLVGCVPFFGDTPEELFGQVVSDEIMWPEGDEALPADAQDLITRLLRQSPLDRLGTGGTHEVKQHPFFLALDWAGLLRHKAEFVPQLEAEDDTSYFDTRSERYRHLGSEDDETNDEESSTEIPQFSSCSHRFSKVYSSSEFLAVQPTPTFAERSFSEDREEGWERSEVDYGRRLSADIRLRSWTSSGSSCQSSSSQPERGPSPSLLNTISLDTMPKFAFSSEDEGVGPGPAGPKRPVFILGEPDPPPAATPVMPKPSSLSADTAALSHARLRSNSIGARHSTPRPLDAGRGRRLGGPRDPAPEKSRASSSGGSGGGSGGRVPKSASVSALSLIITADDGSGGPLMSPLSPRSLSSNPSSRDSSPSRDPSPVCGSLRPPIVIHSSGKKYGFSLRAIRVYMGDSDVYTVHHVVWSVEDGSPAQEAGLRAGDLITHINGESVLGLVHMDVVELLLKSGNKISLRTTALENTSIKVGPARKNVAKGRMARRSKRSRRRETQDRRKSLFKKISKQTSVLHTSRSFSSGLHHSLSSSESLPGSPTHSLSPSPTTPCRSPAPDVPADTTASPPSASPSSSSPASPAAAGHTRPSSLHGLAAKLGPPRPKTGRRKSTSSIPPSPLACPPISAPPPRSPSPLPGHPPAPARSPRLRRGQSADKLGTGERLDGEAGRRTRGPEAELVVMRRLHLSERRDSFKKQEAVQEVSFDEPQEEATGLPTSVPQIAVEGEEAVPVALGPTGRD

protein kinases (human kinome) (Homo sapiens, UniProt Q8TEA7), sequence (Q8TEA7 whole entry): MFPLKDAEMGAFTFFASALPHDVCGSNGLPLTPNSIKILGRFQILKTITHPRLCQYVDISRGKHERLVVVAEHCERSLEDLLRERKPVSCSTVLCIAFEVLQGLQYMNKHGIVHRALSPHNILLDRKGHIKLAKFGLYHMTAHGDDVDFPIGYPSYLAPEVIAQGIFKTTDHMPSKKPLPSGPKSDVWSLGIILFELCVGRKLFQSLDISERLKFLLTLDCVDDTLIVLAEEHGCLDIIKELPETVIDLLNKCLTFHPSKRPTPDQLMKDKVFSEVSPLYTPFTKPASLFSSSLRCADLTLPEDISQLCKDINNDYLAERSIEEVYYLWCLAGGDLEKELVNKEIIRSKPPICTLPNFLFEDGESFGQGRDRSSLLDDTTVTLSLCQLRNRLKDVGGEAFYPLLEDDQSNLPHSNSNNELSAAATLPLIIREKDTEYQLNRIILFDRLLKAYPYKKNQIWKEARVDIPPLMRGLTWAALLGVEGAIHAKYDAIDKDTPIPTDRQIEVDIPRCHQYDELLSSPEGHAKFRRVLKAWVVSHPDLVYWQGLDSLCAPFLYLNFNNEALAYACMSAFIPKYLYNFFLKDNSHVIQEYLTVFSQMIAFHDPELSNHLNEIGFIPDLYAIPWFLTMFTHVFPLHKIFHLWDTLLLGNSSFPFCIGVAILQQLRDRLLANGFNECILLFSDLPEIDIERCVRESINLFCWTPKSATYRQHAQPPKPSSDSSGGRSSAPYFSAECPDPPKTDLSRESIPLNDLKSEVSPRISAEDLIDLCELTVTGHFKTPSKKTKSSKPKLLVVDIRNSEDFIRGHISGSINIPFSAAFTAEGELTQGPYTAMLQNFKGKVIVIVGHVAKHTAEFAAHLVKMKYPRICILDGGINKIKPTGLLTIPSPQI

Structure (SMILES): C=CCn1c(=O)c2cnc(Nc3ccc(N4CCN(CCCNc5cccc6c5C(=O)N(C5CCC(=O)NC5=O)C6=O)CC4)cc3)nc2n1-c1cccc(C(C)(C)O)n1 (stereo not drawn) [ZNL.02.096]
- logFC TBCK (Q8TEA7) ([1]; direction of change down): −0.3334
- logFC TBCK ([1]; protein TBCK (QSTEA7), down): −0.3334

Structure (SMILES): O=C1CCC(N2C(=O)c3cccc(NCCCCCCCCN4CCC(NC(=O)c5[nH]ncc5NC(=O)c5c(Cl)cccc5Cl)CC4)c3C2=O)C(=O)N1 (stereo not drawn) [MFH.5.126.1]
- logFC PIK3CG (P48736) ([2]; Experiment wp076, direction of change down): −0.3735
- logFC ([2]; PIK3CG (P48736), experiment wp076): −0.3735

Structure (SMILES): Cc1cc(Nc2ncc(Br)c(Nc3cccc(F)c3C(N)=O)n2)ccc1S(=O)(=O)NCCOCCOCCOCCOCCNc1cccc2c1C(=O)N(C1CCC(=O)NC1=O)C2=O (stereo not drawn) [TMX.02.174]
- logFC TBK1 (Q9UHD2) ([3]; direction of change down): −0.5951
- logFC TBK1 ([3]; protein TBK1 (Q9UHD2), down): −0.5951

Structure (SMILES): Cc1ncsc1-c1ccc([C@H](C)NC(=O)[C@@H]2C[C@@H](O)CN2C(=O)[C@@H](NC(=O)CCCCCN2CCN(c3ccc(Nc4ncc5scc(-c6cccc(NS(C)(=O)=O)c6)c5n4)cc3)CC2)C(C)(C)C)cc1 [RSS0680, (2S,4R)-1-((S)-3,3-Dimethyl-2-(6-(4-(4-((7-(3-(methylsulfonamido)phenyl)thieno[3,2-d]pyrimidin-2-yl)amino)phenyl)piperazin-1-yl)hexanamido)butanoyl)-4-hydroxy-N—((S)-1-(4-(4-methylthiazol-5yl)phenyl)ethyl)pyrrolidine-2-carboxamide]
- logFC [4]: −0.3389

Structure (SMILES): CC(C)S(=O)(=O)c1ccccc1Nc1nc(Nc2ccc(N3CCN(CCOCCNC(=O)CNc4cccc5c4C(=O)N(C4CCC(=O)NC4=O)C5=O)CC3)cc2)ncc1Cl (stereo not drawn) [SK.3.91]
- logFC TRPM7 (Q96QT4) ([5]; direction of change down): −0.3241
- logFC TRPM7 ([5]; protein TRPM7 (Q96QT4), down): −0.3241
- logFC of SBK1 (Q52WVX2) ([6]; Experiment wp107): −0.921
- logFC ([6]; experiment wp107): −0.921
- logFC ([6]; experiment wp133, 2 hr): −0.6852
- logFC ([6]; experiment wp133, 4 hr): −0.9029
- logFC of SBK1 (Q52WX2) ([6]; experiment wp133, 2 hr): −0.6852
- logFC of SBK1 (Q52WX2) ([6]; experiment wp133, 4 hr): −0.9029
- logFC TRIB3 (Q96RU7) ([7]; Experiment wp114, direction of change down): −1.211
- logFC TRIB3 ([7]; protein TRIB3 (Q96RU7), experiment wp114, down): −1.211
- logFC ([8]; EPHB2 (P29323), experiment wp107): −0.6293
- logFC of EPHB2 (P29323) ([8]; Experiment wp107): −0.6293
- logFC MAST3 (O60307) ([9]; direction of change down): −0.4984
- logFC MAST3 ([9]; protein MAST3 (O60307), down): −0.4984

From patent publication US20240269139A1, “COMPOUNDS FOR TARGETED PROTEIN DEGRADATION OF KINASES” (DANA-FARBER CANCER INSTITUTE, INC., priority 2020, published 2024)
